According to ChEMBL document CHEMBL1165965, “Synthesis and structure-activity relationships of 1,2,3,4-tetrahydropyrido[2,3-b]pyrazines as potent and selective inhibitors of the anaplastic lymphoma kinase” (Bioorg Med Chem, 2010):

Assays:
[1] = tested on: Hepatocyte growth factor receptor (Homo sapiens), P08581 [Y1235D]; assay: Inhibition of MET Y1235D mutant at 1 uM
[2] = biological target: T1, cGMP-dependent protein kinase 1 (Homo sapiens) (UniProt Q13976); assay: Inhibition of PRKG1 at 1 uM
T1 sequence (whole entry): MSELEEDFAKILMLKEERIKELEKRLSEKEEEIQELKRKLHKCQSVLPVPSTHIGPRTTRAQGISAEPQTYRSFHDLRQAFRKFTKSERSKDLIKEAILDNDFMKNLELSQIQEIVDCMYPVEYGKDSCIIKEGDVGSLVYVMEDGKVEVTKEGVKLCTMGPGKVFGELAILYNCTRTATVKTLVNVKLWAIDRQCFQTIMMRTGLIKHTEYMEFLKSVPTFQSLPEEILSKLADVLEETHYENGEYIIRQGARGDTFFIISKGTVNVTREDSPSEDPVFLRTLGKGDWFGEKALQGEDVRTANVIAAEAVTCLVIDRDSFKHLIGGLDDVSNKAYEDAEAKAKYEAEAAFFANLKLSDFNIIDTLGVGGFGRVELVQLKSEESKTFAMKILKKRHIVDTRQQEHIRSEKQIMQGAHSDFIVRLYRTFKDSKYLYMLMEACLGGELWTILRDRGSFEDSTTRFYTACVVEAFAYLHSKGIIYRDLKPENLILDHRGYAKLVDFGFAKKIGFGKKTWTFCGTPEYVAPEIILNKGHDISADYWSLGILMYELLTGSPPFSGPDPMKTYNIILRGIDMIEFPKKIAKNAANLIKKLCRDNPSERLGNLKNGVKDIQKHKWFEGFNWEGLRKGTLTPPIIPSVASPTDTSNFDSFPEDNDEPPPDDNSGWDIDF

[3] = biological target: Tyrosine-protein kinase SYK (Homo sapiens) (UniProt P43405); assay: Inhibition of SYK at 1 uM
[4] = biological target: T2, Serine/threonine-protein kinase TAO1 (Homo sapiens) (UniProt Q7L7X3); assay: Inhibition of TAO1 at 1 uM
T2 sequence (whole entry): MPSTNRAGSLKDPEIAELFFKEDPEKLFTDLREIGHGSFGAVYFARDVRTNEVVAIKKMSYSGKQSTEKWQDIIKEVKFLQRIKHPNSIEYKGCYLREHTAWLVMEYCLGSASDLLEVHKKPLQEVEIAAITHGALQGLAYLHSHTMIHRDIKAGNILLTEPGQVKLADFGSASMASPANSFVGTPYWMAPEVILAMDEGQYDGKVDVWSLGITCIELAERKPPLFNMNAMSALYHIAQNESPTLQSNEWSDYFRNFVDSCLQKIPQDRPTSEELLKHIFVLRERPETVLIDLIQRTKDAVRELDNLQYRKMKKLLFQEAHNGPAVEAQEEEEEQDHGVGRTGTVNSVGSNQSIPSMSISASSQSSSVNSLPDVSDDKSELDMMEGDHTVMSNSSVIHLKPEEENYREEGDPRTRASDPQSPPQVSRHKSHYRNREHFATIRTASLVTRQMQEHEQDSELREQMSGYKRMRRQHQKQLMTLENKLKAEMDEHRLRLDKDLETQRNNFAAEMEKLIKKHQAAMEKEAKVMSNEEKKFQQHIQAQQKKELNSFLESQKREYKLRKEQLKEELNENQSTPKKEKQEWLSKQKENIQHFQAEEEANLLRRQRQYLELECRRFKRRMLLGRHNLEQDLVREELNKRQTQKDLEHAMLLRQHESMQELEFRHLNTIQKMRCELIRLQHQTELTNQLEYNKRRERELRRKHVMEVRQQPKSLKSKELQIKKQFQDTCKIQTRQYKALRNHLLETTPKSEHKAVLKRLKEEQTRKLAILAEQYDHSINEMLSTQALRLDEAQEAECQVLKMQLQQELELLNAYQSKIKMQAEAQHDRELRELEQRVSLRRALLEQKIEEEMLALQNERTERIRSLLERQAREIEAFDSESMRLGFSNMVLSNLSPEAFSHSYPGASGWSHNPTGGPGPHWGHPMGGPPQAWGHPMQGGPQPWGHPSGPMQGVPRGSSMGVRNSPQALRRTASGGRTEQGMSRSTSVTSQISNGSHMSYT

[5] = biological target: T3, Dual specificity protein kinase TTK (Homo sapiens) (UniProt P33981); assay: Inhibition of TTK at 1 uM
T3 sequence (whole entry): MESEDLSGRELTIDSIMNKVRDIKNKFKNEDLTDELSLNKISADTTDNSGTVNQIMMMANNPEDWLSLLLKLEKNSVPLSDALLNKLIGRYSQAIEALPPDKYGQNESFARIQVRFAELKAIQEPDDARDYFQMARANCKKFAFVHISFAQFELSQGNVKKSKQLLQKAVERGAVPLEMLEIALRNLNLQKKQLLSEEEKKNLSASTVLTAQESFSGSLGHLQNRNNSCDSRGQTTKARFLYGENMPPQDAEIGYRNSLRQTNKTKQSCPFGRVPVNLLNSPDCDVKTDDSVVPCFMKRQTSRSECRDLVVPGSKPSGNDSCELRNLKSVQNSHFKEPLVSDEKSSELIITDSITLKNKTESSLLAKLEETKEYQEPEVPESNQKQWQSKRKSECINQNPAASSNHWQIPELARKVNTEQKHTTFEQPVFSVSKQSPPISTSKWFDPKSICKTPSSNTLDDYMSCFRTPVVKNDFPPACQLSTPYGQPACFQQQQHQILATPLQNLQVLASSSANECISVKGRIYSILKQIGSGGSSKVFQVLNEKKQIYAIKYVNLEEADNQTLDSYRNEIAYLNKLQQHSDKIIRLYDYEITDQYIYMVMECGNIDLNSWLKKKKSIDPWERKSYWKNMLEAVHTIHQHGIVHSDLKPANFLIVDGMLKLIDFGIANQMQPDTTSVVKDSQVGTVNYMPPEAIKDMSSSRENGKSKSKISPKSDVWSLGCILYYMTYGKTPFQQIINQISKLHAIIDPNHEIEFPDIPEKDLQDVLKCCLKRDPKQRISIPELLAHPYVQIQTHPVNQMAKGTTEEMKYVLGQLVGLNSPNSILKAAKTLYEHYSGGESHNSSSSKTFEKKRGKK

[6] = biological target: Cyclin-dependent kinase 11B (Homo sapiens) (UniProt P21127); assay: Inhibition of CDC2L1 at 1 uM
Sequence of Cyclin-dependent kinase 11B (Homo sapiens) (P21127 whole entry): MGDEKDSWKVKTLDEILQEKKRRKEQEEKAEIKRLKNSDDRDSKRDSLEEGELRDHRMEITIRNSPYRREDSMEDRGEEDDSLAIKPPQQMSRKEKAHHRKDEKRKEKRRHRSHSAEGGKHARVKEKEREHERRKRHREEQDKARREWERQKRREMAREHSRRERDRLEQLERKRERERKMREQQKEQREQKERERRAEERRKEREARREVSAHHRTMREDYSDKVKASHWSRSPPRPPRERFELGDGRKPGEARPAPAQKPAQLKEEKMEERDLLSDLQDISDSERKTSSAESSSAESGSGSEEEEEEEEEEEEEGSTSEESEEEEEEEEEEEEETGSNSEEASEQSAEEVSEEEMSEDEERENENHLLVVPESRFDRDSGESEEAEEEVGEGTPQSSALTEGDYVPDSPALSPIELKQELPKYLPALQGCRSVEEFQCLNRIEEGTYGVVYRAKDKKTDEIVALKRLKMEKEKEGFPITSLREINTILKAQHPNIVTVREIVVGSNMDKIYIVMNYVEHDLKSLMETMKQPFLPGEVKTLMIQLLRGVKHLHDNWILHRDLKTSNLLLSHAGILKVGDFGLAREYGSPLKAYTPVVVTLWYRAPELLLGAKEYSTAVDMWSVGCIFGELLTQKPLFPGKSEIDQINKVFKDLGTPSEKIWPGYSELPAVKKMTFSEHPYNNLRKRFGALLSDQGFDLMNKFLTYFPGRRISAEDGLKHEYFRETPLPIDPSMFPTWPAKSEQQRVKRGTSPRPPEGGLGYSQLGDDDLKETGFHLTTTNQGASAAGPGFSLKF

Sequence of Hepatocyte growth factor receptor (Homo sapiens), P08581 [Y1235D] (P08581 whole entry Y1235D): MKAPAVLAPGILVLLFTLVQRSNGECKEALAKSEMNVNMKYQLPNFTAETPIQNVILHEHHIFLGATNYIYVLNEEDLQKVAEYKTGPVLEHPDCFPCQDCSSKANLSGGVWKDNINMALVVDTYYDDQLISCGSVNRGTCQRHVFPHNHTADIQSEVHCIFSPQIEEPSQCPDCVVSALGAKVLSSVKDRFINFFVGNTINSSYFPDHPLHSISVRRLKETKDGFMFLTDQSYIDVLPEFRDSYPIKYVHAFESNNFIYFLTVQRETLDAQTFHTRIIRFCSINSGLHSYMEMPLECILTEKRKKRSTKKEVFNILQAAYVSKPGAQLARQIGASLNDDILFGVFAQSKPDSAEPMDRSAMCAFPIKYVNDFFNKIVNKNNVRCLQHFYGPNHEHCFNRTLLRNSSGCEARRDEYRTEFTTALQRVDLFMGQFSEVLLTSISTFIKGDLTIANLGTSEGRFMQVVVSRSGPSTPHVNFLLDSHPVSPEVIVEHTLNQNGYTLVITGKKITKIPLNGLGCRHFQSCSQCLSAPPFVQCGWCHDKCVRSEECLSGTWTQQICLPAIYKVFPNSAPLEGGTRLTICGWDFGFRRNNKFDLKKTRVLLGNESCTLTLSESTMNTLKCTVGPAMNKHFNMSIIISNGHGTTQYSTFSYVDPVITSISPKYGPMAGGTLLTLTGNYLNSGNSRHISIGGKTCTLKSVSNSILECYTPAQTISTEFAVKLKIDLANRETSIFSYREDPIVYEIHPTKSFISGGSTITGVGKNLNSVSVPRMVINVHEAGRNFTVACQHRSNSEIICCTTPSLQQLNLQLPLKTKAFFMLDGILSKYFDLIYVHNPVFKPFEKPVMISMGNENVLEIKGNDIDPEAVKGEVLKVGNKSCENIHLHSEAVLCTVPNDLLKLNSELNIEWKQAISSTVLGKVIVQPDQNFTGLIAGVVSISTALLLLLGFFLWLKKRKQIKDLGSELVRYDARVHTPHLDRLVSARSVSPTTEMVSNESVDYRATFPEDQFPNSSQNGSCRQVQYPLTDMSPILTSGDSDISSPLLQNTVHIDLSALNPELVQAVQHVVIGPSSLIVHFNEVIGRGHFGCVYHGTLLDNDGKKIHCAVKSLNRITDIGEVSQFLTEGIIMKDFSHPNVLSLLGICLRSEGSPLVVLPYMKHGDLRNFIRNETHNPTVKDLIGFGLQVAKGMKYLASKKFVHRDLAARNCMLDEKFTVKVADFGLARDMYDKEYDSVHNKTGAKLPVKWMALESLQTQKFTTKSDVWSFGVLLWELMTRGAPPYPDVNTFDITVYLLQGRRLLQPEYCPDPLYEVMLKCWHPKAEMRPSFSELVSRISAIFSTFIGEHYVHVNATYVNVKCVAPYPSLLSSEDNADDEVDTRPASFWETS

inhibition [1] | inhibition [2] | inhibition [3] | inhibition [4] | inhibition [5] | inhibition [6] | SMILES
< 50% | < 50% | < 50% | < 50% | < 50% | < 50% | CN1CCN(c2ccc(-c3cnc4c(c3)N(Cc3cc(Cl)ccc3C(F)(F)F)CCN4)cn2)CC1
 | < 50% | < 50% |  | < 50% |  | O=C(O)c1ccc(-c2cnc3c(c2)N(Cc2cc(Cl)ccc2C(F)(F)F)CCN3)cc1
 | < 50% | < 50% |  | < 50% |  | O=C(c1ccc(-c2cnc3c(c2)N(Cc2cc(Cl)ccc2C(F)(F)F)CCN3)cc1)N1CCC(N2CCCC2)CC1
 | < 50% | < 50% |  | < 50% |  | COC1CCN(C(=O)c2ccc(-c3cnc4c(c3)N(Cc3cc(Cl)ccc3C(F)(F)F)CCN4)cc2)CC1
75% | < 50% | < 50% | < 50% | < 50% | < 50% | FC(F)(F)c1ccc(Cl)cc1CN1CCNc2ncc(-c3ccnc(N4CCNCC4)c3)cc21
67% | < 50% | < 50% | < 50% | < 50% | < 50% | CC(=O)N1CCN(c2cc(-c3cnc4c(c3)N(Cc3cc(Cl)ccc3C(F)(F)F)CCN4)ccn2)CC1
< 50% | < 50% | < 50% | < 50% | < 50% | < 50% | CN1CCN(c2ccc(-c3cnc4c(c3)N(Cc3cc(F)ccc3F)CCN4)cn2)CC1
71% | < 50% | < 50% | < 50% | < 50% | < 50% | CN1CCN(c2ccc(-c3cnc4c(c3)N(Cc3c(F)ccc(F)c3Cl)CCN4)cn2)CC1
 | < 50% | < 50% |  | < 50% |  | O=C(c1ccc(-c2cnc3c(c2)N(Cc2cc(Cl)ccc2C(F)(F)F)CCN3)cc1)N1CCCCC1
< 50% | < 50% | < 50% | < 50% | < 50% | < 50% | CN1CCN(c2ccc(-c3cnc4c(c3)N(Cc3cc(Cl)ccc3Cl)CCN4)cn2)CC1
